Data from US20060281806A1, “Treatment and inhibition of disease conditions using flexible heteroarotinoids” (priority 2005, published 2006).
Entries after “also recorded” stand apart in the source; their conditions may differ.

Key:
[1] = test system: SW962 vulvar carcinoma cultures; assay: Annexin-V-Fluos apoptosis assay (flow cytometry); assay type: cell-based; conditions: 10 μM; same concentration range as 4-HPR
Method: SW962 vulvar carcinoma cultures were treated with 10 μM of the indicated retinoid or the same volume of solvent. At the specified times, the cultures were labeled with Annexin-V-Fluos and propidium iodide (PI), and the number of apoptotic cells was quantified using dual-laser flow cytometric analysis.

[2] = test system: A2780 ovarian xenograft tumors; assay: A2780 ovarian xenograft tumor model; assay type: in vivo, mouse; conditions: oral 60 mg/kg/day
Method: FIG. 12. Various Xenograft tumors stained with CD34 antibodies (brown) to identify endothelium. The B16 mouse melanoma cell line was established as a syngeneic tumor in an immunocompetent mouse model and the human Caki renal cancer and A2780 ovarian xenograft tumors in immunocompromised mice. The treated mice were gavaged with 60 mg/kg/day SHetA2 and the untreated were gavaged with solvent only. The tumors were excised and sections were stained with the anti-CD34 antibody to detect endothelial cells (brown stain).
Survival was the primary endpoint of those studies. […] Tumor growth was the primary endpoint of the renal cancer study.

[3] = test system: organotypic cultures of normal endometrial cells treated with DMBA; assay: Chemoprevention in DMBA-treated organotypic cultures of normal endometrial cells; assay type: cell-based; conditions: histology and karyometric analysis
Excerpt: Untreated: The specimen is cellular with both surface and mid-gel cells presence in abundance. Two cell types are clearly present. One appears to be stromal. The nuclei are thin and spindle shaped and the cytoplasm is similar. When cut in cross-section the nuclei are very small and round and hyperchromatic. The other cells have large, oval to almost boxcar nuclei with small nucleoli and abundant cytoplasm. Numerous mitosis are present. The epithelial cells are almost syncitial in nature and appear to cling to one another. With DMBA Carcinogen: The specimen is cellular. The cells present have lost their cytoplasm. There is more pleomorphism of the cells and many are very hyperchromatic. Mitoses are very numerous-approximately 2× the number in untreated. Cells no longer are together but are distinct one from another. Stromal cells intermix with the epithelial cells. […]
FIG. 19 illustrates a typical experiment in which organotypic cultures of normal endometrial cells were treated with a carcinogen called DMBA and developed the cancer phenotype. […] All segmented nuclei were then subjected to texture feature extraction using TICAS software, resulting in 95 textrue features for each nucleus that were subjected to quantitative analysis.

[4] = test system: OVCAR-3 xenograft tumors; assay: OVCAR-3 xenograft tumor animal model, tumor growth; assay type: in vivo, mouse; conditions: 10 mg/kg/day by gavage, 5 days/week, 4 weeks; t-test on day 29
Method: Groups of 5 mice bearing OVCAR-3 xenografted tumors were gavaged daily with the indicated drugs in sesame oil (▪ closed square) or with sesame oil alone (∘ open circle). Tumor volumes were measured in 3 dimensions with calipers weekly. Each data point represents the average and standard error of the tumor volumes on the indicated treatment day relative to the tumor volume on day zero. Nu/nu mice were injected subcutaneously with one million OVCAR-3 cells and arbitrarily divided into five groups of six mice each. After three weeks of tumor growth, the animals were gavaged with sesame oil, 10 mg/kg/day 4-HPR, or the indicated Het five times per week for four weeks and the tumors were measured once per week. The tumor sizes were averaged and divided by the average size for each group on the day that treatment was initiated (day 0).
The OVCAR-3 cultures were maintained in RPMI media supplemented with 10% fetal bovine serum. All animal experimentation described in this manuscript was conducted in accord with accepted standards of humane animal care. Twenty-five female NU/NU CD-1 female mice (Charles Rivers Laboratories) were housed in a laminar flow room under sterile conditions at 83-85° F. The mice were quarantined for one week prior to the beginning of the study and were allowed access to autoclaved food (Purina 5001 mouse/rat sterilizable diet, St. Louis, Mo.) and water ad libitum. OVCAR-3 cells in log phase growth were harvested by trypsinization, resuspended in RPMI culture medium, and centrifuged at 3,000 rpm for 10 min. The pellets were resuspended in RPMI culture medium at a concentration of 7×10^6 cells/ml before implantation into mice. Animals were injected with 3.5×10^6 cells into the right scapular region with a 24-gauge needle/1 cc tuberculin syringe. Twenty-four hours after tumor implantation, animals were randomized into 5 groups of 5 animals each.
The Hets SHet50, SHetA2 and SHetA4 were synthesized and their receptor specificity determined as previously described (17,19). The 4-HPR compound was a gift from R.W. Johnson Pharmaceutical Research Institute, Raritan, N.J. All retinoids were dissolved in super refined sesame oil (Croda, Inc., Parsippany, N.J.) and stored at −80° C. Since the retinoids are light sensitive, all manipulations involving retinoids were performed under subdued lighting. […] Tumors were measured with calipers weekly, and tumor volumes were calculated using the formula: volume=length×width×height. Tumor growth was determined by the dividing the volume of the tumor at each weekly measurement by the volume on the first day of treatment. Animal weights and clinical signs of overall health status and cutaneous toxicities were recorded weekly.

CC1(C)CC(C)(C)c2cc(NC(=S)Nc3ccc([N+](=O)[O-])cc3)ccc2S1 [SHetA2]
induction of apoptosis (Annexin-V-Flous assay) [1]: induced apoptosis | survival ([2]; ovarian cancer model): improved survival | development of blood vessels inside tumors (anti-CD34 staining) ([2]; ovarian): inhibited the development of blood vessels | development of the DMBA-induced cancer phenotype [3]: prevented the development of this phenotype | growth of xenograft tumors versus sesame oil control [4]: significantly inhibited the growth; also recorded: significantly less
